Experimental data published in US12514814B2, “Composition containing extract of Lilium hansonii leichtlin ex baker” (LG HOUSEHOLD & HEALTH CARE LTD., priority 2019, dated 2026).
Each block holds one compound with its values, some of them ahead of it.

Legend:
[1] = tested on: human-derived fibroblasts; assay: Effect of increasing total collagen amount (PICP EIA kit); type: cell-based; conditions: 52.8 μg/ml; cultured one day; relative to control without additive; n=3
Method: The Lilium hansonii extracts and the three types of Lilium genus plant extracts were added to a culture medium containing human-derived fibroblasts, and then their effects of increasing a total collagen amount at the cellular level were compared. The increased total collagen amount was quantified using a Procollagen Type I C-Peptide Enzyme ImmunoAssay kit (PICP EIA kit). […] After adding each sample to a culture medium containing human-derived fibroblasts and culturing for one day, the culture medium was collected and a degree of increase in a total collagen amount at each concentration was measured at 450 nm using a PICP EIA kit and a spectrophotometer. For the comparison of effects, a degree of increase in a total collagen amount was measured in the same manner for a fibroblast culture medium to which no sample was added (control) and a sample to which vitamin C was added at a final concentration of 52.8 μg/ml. The total collagen amount was measured as UV absorbance, and a rate of increase in the total collagen amount was calculated as a ratio of a total collagen amount relative to that of the control, and the results are summarized in Table 1 below.

[2] = tested on: tyrosinase enzyme extracted from mushrooms; assay: Tyrosinase inhibition; type: biochemical; conditions: 52.8 μg/ml; positive control; n=3
Method: A tyrosinase enzyme extracted from mushrooms and commercially available from SIGMA was used. First, tyrosine, a substrate, was dissolved in distilled water to make a solution having a concentration of 0.3 mg/ml, 1.0 ml of the solution was input into each test tube, and 1.0 ml of a potassium-phosphate buffer solution (concentration: 0.1 mol, pH: 6.8) and 0.7 ml of distilled water were added thereto. 0.2 ml of a sample solution, which had been prepared by adding one of Examples 1 to 3 of the present invention and Comparative Examples 1 to 3 to an ethanol solution at a final concentration of 100 μg/ml, was added to a reaction solution and then reacted in a 37° C. thermostat for 10 minutes. In this case, a control was prepared by adding only 0.2 ml of an ethanol solution instead of the sample solution, and vitamin C was used as a positive control. After adding 0.1 ml of a 2,500 units/ml tyrosinase solution, the reaction solution was again reacted in a 37° C. thermostat for 10 minutes. The test tube containing the reaction solution was quenched by placing in ice water to stop the reaction, and absorbance was measured at a wavelength of 475 nm using a photoelectric spectrometer, and the results are shown in Table 3 below. The tyrosinase inhibitory effect of each sample was calculated according to the following Mathematical Formula 2.

Human dermal fibroblasts = assay: Hyaluronic acid synthesis promotion (Hyaluronan ELISA); type: cell-based; conditions: 10 ng/ml (10 ppb); positive control; 24 hours; control without additive = 100%
Method: Human dermal fibroblasts were cultured at a concentration of 1×10^5 cells/mL in a DMEM medium containing 10% fetal bovine serum and, after dispensing 500 μl thereof into each well of a 24-well plate, cultured for 18 hours. Subsequently, each sample was diluted in a DMEM medium not containing fetal bovine serum, and each sample was added at various concentrations. As a positive control, an epidermal growth factor (EGF) known to promote hyaluronic acid production was treated at a concentration of 10 ppb. After culturing for 24 hours, a cell culture medium was recovered, and the concentration of hyaluronic acid was measured using a Hyaluronan ELISA kit (R&D Systems).
In addition, the hyaluronic acid concentration of each experimental group treated with each sample was quantified based on the hyaluronic acid concentration (100%) of a control not containing an additive, and the results are shown in the following Table 5.

[3] = Glycation inhibitory activity using L-arginine and glucose; type: biochemical; conditions: 55 μg/ml; positive control; n=3
Method: To confirm an antiglycation efficacy, glycation inhibitory activity was measured using L-arginine and glucose.
A solution of 1 M L-arginine and 1 M glucose in 1 M phosphate buffer (pH 7.4) was first prepared and diluted with 1 M phosphate buffer so that the concentration of the sample was 100 μg/ml, 1 M L-arginine and 1 M phosphate buffer were mixed in a ratio of 1:4, and 80 μl thereof was dispensed into each well of a 96-well plate. To this, each sample, which was diluted to 100 μg/ml, and 100 μl of 0.01 M aminoguanidine, which was used as a positive control, were added. After sufficiently mixing the sample, finally, glucose which was diluted with 1 M phosphate buffer so that the final concentration of glucose was 0.1 M was added and then reacted at 70° C. for four hours. In the 96-well plate, absorbance was measured at 420 nm using a spectrophotometer to measure a degree of glycation.
The glycation experimental group of Mathematical Formula 3 is an experimental group in which glycation was induced by adding 1 M L-arginine and 1 M glucose, and to measure the absorbance of a sample itself, absorbance was measured at 420 nm after adding only 1 M L-arginine and the sample and no glucose.
The glycation inhibitory activity can be calculated according to the following Mathematical Formula 3. Each group was tested three times, and an average value was obtained.

B-16 mouse melanoma cell = assay: Total melanin amount reduction; type: cell-based; conditions: 100 μg/ml, three days
Method: Each of Examples 1 to 3 and Comparative Examples 1 to 3 was added to a mouse melanoma cell (B-16 mouse melanoma cell) culture medium, and a whitening effect thereof at the cellular level was tested.
Each extract was tested after being added to the culture medium at a final concentration of 100 μg/ml, and arbutin, which was a control, was added to the medium at a concentration of 100 μg/ml. B-16 melanoma cells were treated with the experimental group or the control and then cultured for three days.
Subsequently, the cultured cells were treated with trypsin, removed from the culture vessel, and then centrifuged to extract melanin. The removed cells were treated with 1 ml of a sodium hydroxide solution (1 N) and then boiled for 10 minutes to dissolve melanin, and absorbance was measured at 400 nm using a spectrophotometer to measure the amount of produced melanin.
The amount of melanin was measured as absorbance per unit cell number (10^6 cells), and a ratio thereof relative to the total melanin amount of the control was calculated as an inhibition rate (%), and the results are summarized in Table 4.

- Tyrosinase inhibition rate (%) [2]: 50%
Compound: O=C1O[C@H]([C@@H](O)CO)C(O)=C1O [Vitamin C, vitamin C]
- Collagen increase rate (%) [1]: 26%

Compound: EGF: epidermal growth factor known to promote hyaluronic acid production, positive control
- Hyaluronic acid (%) (Human dermal fibroblasts): 150.9%

Compound: N=C(N)NN [Aminoguanidine, aminoguanidine]
- Glycation inhibition rate (%) [3]: 54.89%

Compound: OC[C@H]1O[C@@H](Oc2ccc(O)cc2)[C@H](O)[C@@H](O)[C@@H]1O [Arbutin, arbutin]
- Total melanin amount (Abs) (B-16 mouse melanoma cell; absorbance at 400 nm per 10^6 cells, control 0.254): 0.126 Abs
- inhibition at 100 µg/mL (B-16 mouse melanoma cell; Mus musculus, 72 h, relative to control, read-out: Inhibition rate (%) (total melanin)): 50.4%
